In PubChem BioAssay (NCI):
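A five-concentration, 48-hour dose response in 96-well plates underlies each endpoint, interpolated linearly between surrounding concentrations. TGI denotes the concentration required for complete inhibition of growth.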

Experiments:
Assay in all cases: inhibition of tumour cell growth, NCI panel, 48 h
786-0 renal = system: 786-0 renal
A498 renal = system: A498 renal
A549 NSCLC = system: A549 NSCLC
ACHN renal = system: ACHN renal
CAKI-1 renal = system: CAKI-1 renal
CCRF-CEM leukemia = system: CCRF-CEM leukemia
COLO 205 colon = system: COLO 205 colon
DMS 114 small cell lung = system: DMS 114 small cell lung
HCT-116 colon = system: HCT-116 colon
HCT-15 colon = system: HCT-15 colon
HL-60(TB) leukemia = system: HL-60(TB) leukemia
HOP-18 NSCLC = system: HOP-18 NSCLC
HOP-62 NSCLC = system: HOP-62 NSCLC
HOP-92 NSCLC = system: HOP-92 NSCLC
HT29 colon = system: HT29 colon
IGROV1 ovarian = system: IGROV1 ovarian
K-562 leukemia = system: K-562 leukemia
KM12 colon = system: KM12 colon
KM20L2 colon = system: KM20L2 colon
LOX IMVI melanoma = system: LOX IMVI melanoma
LXFL 529 NSCLC = system: LXFL 529 NSCLC
M14 melanoma = system: M14 melanoma
M19-MEL melanoma = system: M19-MEL melanoma
MALME-3M melanoma = system: MALME-3M melanoma
MOLT-4 leukemia = system: MOLT-4 leukemia
NCI-H226 lung = system: NCI-H226 lung
NCI-H23 lung = system: NCI-H23 lung
NCI-H460 lung = system: NCI-H460 lung
NCI-H522 lung = system: NCI-H522 lung
OVCAR-3 ovarian = system: OVCAR-3 ovarian
OVCAR-4 ovarian = system: OVCAR-4 ovarian
OVCAR-5 ovarian = system: OVCAR-5 ovarian
OVCAR-8 ovarian = system: OVCAR-8 ovarian
RPMI-8226 leukemia = system: RPMI-8226 leukemia
SF-268 CNS = system: SF-268 CNS
SF-295 CNS = system: SF-295 CNS
SF-539 CNS = system: SF-539 CNS
SK-MEL-2 melanoma = system: SK-MEL-2 melanoma
SK-MEL-28 melanoma = system: SK-MEL-28 melanoma
SK-MEL-5 melanoma = system: SK-MEL-5 melanoma
SK-OV-3 ovarian = system: SK-OV-3 ovarian
SN12C renal = system: SN12C renal
SNB-19 CNS = system: SNB-19 CNS
SNB-75 CNS = system: SNB-75 CNS
SNB-78 CNS = system: SNB-78 CNS
SR leukemia = system: SR leukemia
SW-620 colon = system: SW-620 colon
TK-10 renal = system: TK-10 renal
U251 CNS = system: U251 CNS
UACC-257 melanoma = system: UACC-257 melanoma
UACC-62 melanoma = system: UACC-62 melanoma
UO-31 renal = system: UO-31 renal
DLD-1 colon = system: DLD-1 colon
DMS 273 small cell lung = system: DMS 273 small cell lung
EKVX NSCLC = system: EKVX NSCLC
HCC-2998 colon = system: HCC-2998 colon

With `O=C(Nc1c(O)[nH]c(=S)[nH]c1=O)c1ccco1` as the compound, how does the TGI (786-0 renal) read?
Its TGI is over 100 µM.

And the TGI (A498 renal)?
The TGI was over 100 µM.

What about the TGI (A549 NSCLC) of the same compound?
The TGI was over 100 µM.

And the TGI (ACHN renal)?
The TGI was over 100 µM.

And the TGI (CAKI-1 renal)?
The TGI was over 100 µM.

And the TGI (CCRF-CEM leukemia)?
Its TGI is over 100 µM.

What about the TGI (COLO 205 colon) of the same compound?
The TGI was over 100 µM.

What about the TGI (DMS 114 small cell lung) of the same compound?
The TGI was over 100 µM.

What about the TGI (HCT-116 colon) of the same compound?
The TGI was over 100 µM.

And the TGI (HCT-15 colon)?
Its TGI is over 100 µM.

What about the TGI (HL-60(TB) leukemia) of the same compound?
Its TGI is over 100 µM.

And the TGI (HOP-18 NSCLC)?
The TGI was over 100 µM.

What about the TGI (HOP-62 NSCLC) of the same compound?
Its TGI is over 100 µM.

What about the TGI (HOP-92 NSCLC) of the same compound?
The TGI was over 100 µM.

What about the TGI (HT29 colon) of the same compound?
Its TGI is over 100 µM.

What about the TGI (IGROV1 ovarian) of the same compound?
The TGI was over 100 µM.

What about the TGI (K-562 leukemia) of the same compound?
Its TGI is over 100 µM.

And the TGI (KM12 colon)?
Its TGI is over 100 µM.

And the TGI (KM20L2 colon)?
Its TGI is over 100 µM.

What about the TGI (LOX IMVI melanoma) of the same compound?
Its TGI is over 100 µM.

What about the TGI (LXFL 529 NSCLC) of the same compound?
Its TGI is over 100 µM.

What about the TGI (M14 melanoma) of the same compound?
Its TGI is over 100 µM.

And the TGI (M19-MEL melanoma)?
Its TGI is over 100 µM.

And the TGI (MALME-3M melanoma)?
The TGI was over 100 µM.

What about the TGI (MOLT-4 leukemia) of the same compound?
Its TGI is over 100 µM.

What about the TGI (NCI-H226 lung) of the same compound?
The TGI was over 100 µM.

And the TGI (NCI-H23 lung)?
Its TGI is over 100 µM.

And the TGI (NCI-H460 lung)?
Its TGI is over 100 µM.

And the TGI (NCI-H522 lung)?
Its TGI is over 100 µM.

And the TGI (OVCAR-3 ovarian)?
Its TGI is over 100 µM.

What about the TGI (OVCAR-4 ovarian) of the same compound?
Its TGI is over 100 µM.

What about the TGI (OVCAR-5 ovarian) of the same compound?
Its TGI is over 100 µM.

What about the TGI (OVCAR-8 ovarian) of the same compound?
Its TGI is over 100 µM.

And the TGI (RPMI-8226 leukemia)?
The TGI was over 100 µM.

What about the TGI (SF-268 CNS) of the same compound?
The TGI was over 100 µM.

And the TGI (SF-295 CNS)?
Its TGI is over 100 µM.

What about the TGI (SF-539 CNS) of the same compound?
The TGI was over 100 µM.

What about the TGI (SK-MEL-2 melanoma) of the same compound?
Its TGI is over 100 µM.

And the TGI (SK-MEL-28 melanoma)?
Its TGI is over 100 µM.

And the TGI (SK-MEL-5 melanoma)?
Its TGI is over 100 µM.

What about the TGI (SK-OV-3 ovarian) of the same compound?
Its TGI is over 100 µM.

What about the TGI (SN12C renal) of the same compound?
Its TGI is over 100 µM.

What about the TGI (SNB-19 CNS) of the same compound?
Its TGI is over 100 µM.

And the TGI (SNB-75 CNS)?
Its TGI is over 100 µM.

What about the TGI (SNB-78 CNS) of the same compound?
Its TGI is over 100 µM.

And the TGI (SR leukemia)?
The TGI was over 100 µM.

What about the TGI (SW-620 colon) of the same compound?
Its TGI is over 100 µM.

And the TGI (TK-10 renal)?
Its TGI is over 100 µM.

What about the TGI (U251 CNS) of the same compound?
The TGI was over 100 µM.

What about the TGI (UACC-257 melanoma) of the same compound?
Its TGI is over 100 µM.

And the TGI (UACC-62 melanoma)?
Its TGI is over 100 µM.

What about the TGI (UO-31 renal) of the same compound?
The TGI was over 100 µM.

`CCc1cccc(C)c1NC(=O)CCc1n[nH]c(=S)o1` was tested. Which TGI (786-0 renal) did it give?
Its TGI is over 100 µM.

What about the TGI (A498 renal) of the same compound?
The TGI was over 100 µM.

And the TGI (ACHN renal)?
The TGI was over 100 µM.

What about the TGI (CAKI-1 renal) of the same compound?
Its TGI is over 100 µM.

What about the TGI (CCRF-CEM leukemia) of the same compound?
The TGI was over 100 µM.

And the TGI (COLO 205 colon)?
Its TGI is over 100 µM.

What about the TGI (DLD-1 colon) of the same compound?
The TGI was over 100 µM.

And the TGI (DMS 273 small cell lung)?
Its TGI is over 100 µM.

And the TGI (EKVX NSCLC)?
The TGI was over 100 µM.

What about the TGI (HCC-2998 colon) of the same compound?
The TGI was over 100 µM.

And the TGI (HCT-116 colon)?
The TGI was 31.1 µM.

What about the TGI (HCT-15 colon) of the same compound?
Its TGI is over 100 µM.

What about the TGI (HL-60(TB) leukemia) of the same compound?
Its TGI is over 100 µM.

And the TGI (HOP-18 NSCLC)?
Its TGI is over 100 µM.

What about the TGI (HOP-62 NSCLC) of the same compound?
Its TGI is over 100 µM.

And the TGI (HOP-92 NSCLC)?
Its TGI is over 100 µM.

And the TGI (HT29 colon)?
Its TGI is over 100 µM.

What about the TGI (IGROV1 ovarian) of the same compound?
Its TGI is over 100 µM.

What about the TGI (K-562 leukemia) of the same compound?
Its TGI is over 100 µM.

What about the TGI (KM12 colon) of the same compound?
The TGI was over 100 µM.

And the TGI (KM20L2 colon)?
The TGI was over 100 µM.

And the TGI (LXFL 529 NSCLC)?
Its TGI is over 100 µM.

And the TGI (M14 melanoma)?
The TGI was over 100 µM.

What about the TGI (M19-MEL melanoma) of the same compound?
The TGI was over 100 µM.

And the TGI (MALME-3M melanoma)?
Its TGI is over 100 µM.

What about the TGI (MOLT-4 leukemia) of the same compound?
Its TGI is over 100 µM.

And the TGI (NCI-H226 lung)?
The TGI was over 100 µM.

And the TGI (NCI-H23 lung)?
The TGI was over 100 µM.

And the TGI (NCI-H460 lung)?
Its TGI is over 100 µM.

What about the TGI (NCI-H522 lung) of the same compound?
Its TGI is over 100 µM.

And the TGI (OVCAR-3 ovarian)?
Its TGI is over 100 µM.

What about the TGI (OVCAR-4 ovarian) of the same compound?
The TGI was over 100 µM.

And the TGI (OVCAR-5 ovarian)?
The TGI was over 100 µM.

And the TGI (OVCAR-8 ovarian)?
Its TGI is over 100 µM.

What about the TGI (RPMI-8226 leukemia) of the same compound?
The TGI was 58.2 µM.

What about the TGI (SF-268 CNS) of the same compound?
The TGI was over 100 µM.

And the TGI (SF-295 CNS)?
The TGI was over 100 µM.

And the TGI (SF-539 CNS)?
Its TGI is over 100 µM.

And the TGI (SK-MEL-28 melanoma)?
The TGI was over 100 µM.

What about the TGI (SK-MEL-5 melanoma) of the same compound?
Its TGI is over 100 µM.

What about the TGI (SK-OV-3 ovarian) of the same compound?
Its TGI is over 100 µM.

And the TGI (SN12C renal)?
The TGI was over 100 µM.

And the TGI (SNB-19 CNS)?
The TGI was over 100 µM.

And the TGI (SNB-75 CNS)?
Its TGI is over 100 µM.

What about the TGI (SNB-78 CNS) of the same compound?
Its TGI is over 100 µM.

And the TGI (SW-620 colon)?
The TGI was 28 µM.

And the TGI (TK-10 renal)?
Its TGI is over 100 µM.

And the TGI (U251 CNS)?
Its TGI is over 100 µM.

What about the TGI (UACC-257 melanoma) of the same compound?
The TGI was over 100 µM.

And the TGI (UACC-62 melanoma)?
The TGI was over 100 µM.

What about the TGI (UO-31 renal) of the same compound?
Its TGI is over 100 µM.
